From patent US10889812B2, “Short non-coding protein regulatory RNAs (sprRNAs) and methods of use” (University of Maryland, Baltimore, priority 2014, dated 2021)

Key:
HBE4 cells = assay: Wound healing assay (gap closure); format: cell-based, human; conditions: HBE4, vs Scr control
Excerpt: (§1) For cell migration, we used two complementary assays. […] To compensate potential differences in the cell numbers among different treatment conditions, we seeded 10% less cells for Ant-163 treated HBE4 cells and 10% more cells for piR-L-163 transfected H1792 cells.
(§2) Two complimentary methods were used. For quantitative fluorescent dye assay, Innocyto™ Cell migration Assay kit (EMD Millipore) was used. Briefly, 24 hrs after treatment, 1×10^5 cells (10% less for Ant-163 treated cells or 10% more for piR-L-163 treated cells) were loaded to the upper chamber with growth factor-free Keratinocyte-SFM for (HBE4 cells) or serum-free DMEM (for H1792 cells) with the bottom chamber exposed to completed culture medium. Negative controls were used with 3 μM Latrunculin A. After 12 hrs incubation, fluorescence was measured using a fluorescence plate reader 485 nm (excitation) and 520 nm (emission) according to the manufacturer's instruction. For wound-healing assay, cells (24 hrs after treatment with different DNA or RNA oligonucleotides) were grown to confluence followed by scratching with a pipette tip to create a gap. The floating cells were removed and the gaps were monitored/photographed every 12 hrs.

H1792 cells = assay: Wound healing assay (gap closure); format: cell-based, human; conditions: H1792, vs Scr control, Ant-163 or a mutant piR-L-163
Excerpt: as §1, §2

ERM proteins = assay: Pull down with biotin-conjugated piR-L-163 from HBE4 cell lysates, LC-MS-MS; format: binding, human; conditions: vs Scr control RNA
Excerpt: Because of the unexpected cellular localizations of piR-L-163 during cell cycle progression, we suspected that piR-L-163 plays a biological role through interaction with proteins. To identify potential piR-L-163 interacting proteins, biotin-conjugated piR-L-163 RNA oligonucleotides were used as a bait to pull down cellular binding proteins in HBE4 cells.
For IP using piR-L-163, synthesized biotin labeled RNA oligonucleotides (/5′Biosg/[…]-3′) (SEQ ID NO:502) was used and scrambled RNA (/5′Biosg/[…]-3′) (SEQ ID NO:503) used as a control.
Protein extracts from 1×10^7 cells using HKMG lysis buffer (10 mM HEPES pH 7.9, 100 mM KCL, 5 mM MgCl2, 10% glycerol, 1 mM dithiothreitol, 0.1% NP40) with protease and phosphatase inhibitors (Roche) were incubated with 1 μg biotin-labeled RNA for 16 hr at 4° C. with rotation after pre-clearing with streptavidin beads, then coupled to 10 μl 50% of streptavidin agarose beads (Sigma-Aldrich). After incubation, the biotin-labeled oligonucleotide-coupled streptavidin beads were washed four times with HKMG lysis buffer. Samples were denatured in SDS protein loading buffer before running on a SDS-acrylamide gel.
The target band for mass spectrometry was performed. […]
The processed samples were analyzed using a nanoscale reverse-phase liquid chromatography using an Xtreme Simple nanoLC system (CVC/Q24 MicroTech). […]

Substance	gap closure (HBE4 cells)	gap closure (H1792 cells)	binding to ERM proteins (pull down) (ERM proteins)
Ant-163: DNA sequence antisense to piR-L-163, SEQ ID NO:496, 5′-GGTCAGAGAATCAAAGTAACATCATGATAT-3′ (DNA, backbone and methylation of C not given here)	faster gap closure	–	–
piR-L-163: sprRNA, SEQ ID NO:282; piRNA-L aligned to intron 10 of LAMC2; AUAUCAUGAUGUUACUUUGAUUCUCUGACC with 3′ 2′-O-methylation (listed as RNA, chemistry not fully specified; listed as Homo sapiens)	–	slower gap closure	binds to ERM proteins
